In paper PMC11212140, “Molecular Bidents with Two Electrophilic Warheads as a New Pharmacological Modality” (ACS Central Science, 2024):

Legend:
Test in all cases: KiNativ profiling in H3255 cells
Format in all cases: cell-based, human
[1] = test system: T1, PI4K2B; settings: 2.5 µM; ATP; SEEPYGQLNPKWTK
T1 construct: purchased ActivX Biosciences (KiNativ)
Method: (§1) H3255 cells were plated with 6.5x10^6 per condition in fresh media in 15 cm plates and treated the 80% confluency for 2 hours with DMSO or 2.5 μM of ZNL-0056. To harvest cells, plates were washed 3 times with cold PBS, then collected by scraping into 4 mL of cold PBS containing protease and phosphatase inhibitors. Cells were pelleted by centrifugation at 1350 g at 4 ℃ for 5 minutes and immediately frozen in liquid nitrogen. The frozen samples were sent to ActivX Biosciences (La Jolla, CA) for the remainder of the KiNativ profiling experiment4. […]

[2] = test system: T2, EphA1; settings: 2.5 µM; Activation Loop; LLDDFDGTYETQGGKIPIR
T2 construct: purchased ActivX Biosciences (KiNativ)
Method: as §1

[3] = test system: T3, LATS2; settings: 2.5 µM
T3 construct: purchased ActivX Biosciences (KiNativ)
Method: as §1

[4] = test system: MAP3K15, MAP3K5, MAP3K6; settings: 2.5 µM; Lys1; IAIKEIPER
Method: as §1

[5] = test system: T4, SIK; settings: 2.5 µM; Lys1; TQVAIKIIDK
T4 construct: purchased ActivX Biosciences (KiNativ)
Method: as §1

[6] = test system: T5, TLK2; settings: 2.5 µM
T5 construct: purchased ActivX Biosciences (KiNativ)
Method: as §1

[7] = test system: T6, MAP3K1; settings: 2.5 µM; Lys2; DVKGANLLIDSTGQR
T6 construct: purchased ActivX Biosciences (KiNativ)
Method: as §1

[8] = test system: T7, CLK3; settings: 2.5 µM
T7 construct: purchased ActivX Biosciences (KiNativ)
Method: as §1

[9] = test system: T8, TNK1; settings: 2.5 µM; Lys1; SVPVAVKSLR
T8 construct: purchased ActivX Biosciences (KiNativ)
Method: as §1

[10] = test system: T9, RSK3 domain1; settings: 2.5 µM; Lys2; DLKPENILLDEEGHIKITDFGLSK
T9 construct: RSK3 domain1; purchased ActivX Biosciences (KiNativ)
Method: as §1

[11] = test system: T10, CDC2; settings: 2.5 µM
T10 construct: purchased ActivX Biosciences (KiNativ)
Method: as §1

[12] = test system: T11, p38a; settings: 2.5 µM
T11 construct: purchased ActivX Biosciences (KiNativ)
Method: as §1

[13] = test system: T12, p70S6Kb; settings: 2.5 µM; Lys2; DLKPENIMLSSQGHIK
T12 construct: purchased ActivX Biosciences (KiNativ)
Method: as §1

[14] = test system: T13, p38b; settings: 2.5 µM; Other; QELNKTVWEVPQR
T13 construct: purchased ActivX Biosciences (KiNativ)
Method: as §1

[15] = test system: T14, PIP4K2A; settings: 2.5 µM, ATP
T14 construct: purchased ActivX Biosciences (KiNativ)
Method: as §1

[16] = test system: T15, ZC2/TNIK; settings: 2.5 µM; Lys1; TGQLAAIKVMDVTGDEEEEIKQEINMLKK
T15 construct: purchased ActivX Biosciences (KiNativ)
Method: as §1

[17] = test system: T16, HRI; settings: 2.5 µM; Activation Loop; IGDFGLACTDILQKNTDWTNR
T16 construct: purchased ActivX Biosciences (KiNativ)
Method: as §1

[18] = test system: BRAF, RAF1; settings: 2.5 µM; Activation Loop; IGDFGLATVKSR
Method: as §1

[19] = test system: T17, ZAK; settings: 2.5 µM; Lys1; WISQDKEVAVKK
T17 construct: purchased ActivX Biosciences (KiNativ)
Method: as §1

[20] = test system: FYN, SRC, YES; settings: 2.5 µM; Activation Loop; QGAKFPIKWTAPEAALYGR
Method: as §1

[21] = test system: T18, YES; settings: 2.5 µM; Lys1; VAIKTLKPGTMMPEAFLQEAQIMK
T18 construct: purchased ActivX Biosciences (KiNativ)
Method: as §1

[22] = test system: T19, ATM; settings: 2.5 µM; ATP; QLVKGRDDLRQDAVMQQVFQMCNTLLQR
T19 construct: purchased ActivX Biosciences (KiNativ)
Method: as §1

[23] = test system: T20, RSK2 domain1; settings: 2.5 µM
T20 construct: RSK2 domain1; purchased ActivX Biosciences (KiNativ)
Method: as §1

[24] = test system: T21, AurB; settings: 2.5 µM; Lys1; SHFIVALKVLFK
T21 construct: purchased ActivX Biosciences (KiNativ)
Method: as §1

[25] = test system: RSK1 domain1, RSK2 domain1, RSK3 domain1; settings: 2.5 µM; Lys2; DLKPENILLDEEGHIK
Method: as §1

[26] = test system: T22, IRAK1; settings: 2.5 µM; Lys2; AIQFLHQDSPSLIHGDIKSSNVLLDER
T22 construct: purchased ActivX Biosciences (KiNativ)
Method: as §1

[27] = test system: p38d, p38g; settings: 2.5 µM; Lys2; DLKPGNLAVNEDCELK
Method: as §1

[28] = test system: T23, PI4KB; settings: 2.5 µM, ATP
T23 construct: purchased ActivX Biosciences (KiNativ)
Method: as §1

[29] = test system: T24, CaMK1d; settings: 2.5 µM
T24 construct: purchased ActivX Biosciences (KiNativ)
Method: as §1

[30] = test system: T25, CK1g1; settings: 2.5 µM; Lys2; DVKPENFLIGR
T25 construct: purchased ActivX Biosciences (KiNativ)
Method: as §1

[31] = test system: T26, NEK7; settings: 2.5 µM; Lys1; AACLLDGVPVALKK
T26 construct: purchased ActivX Biosciences (KiNativ)
Method: as §1

[32] = Lys2, YLNEIKPPIIHYDLKPGNILLVNGTACGEIK
[33] = ATP Loop, YEIVGNLGEGTFGKVVECLDHAR
[34] = Lys2, FLHENQLTHTDLKPENILFVNSEFETLYNEHK
[35] = Protein Kinase Domain, KPLFHGDSEIDQLFR
[36] = Activation Loop, LTDFGLSKESIDHEKK

## C=CC(=O)Nc1cc(C(=O)Nc2nc3cccc(C)c3n2[C@@H]2CCCCN(C(=O)C=C)C2)cs1 [ZNL-0056]
[1]
  Inhibition: -26.7%
[2]
  Inhibition: -5.3%
[3]; Lys1, VDTHALYAMKTLR
  Inhibition: 15.4%
[3]; Lys2, DIKPDNILIDLDGHIK
  Inhibition: 23.5%
[4]
  Inhibition: -7.9%
[5]
  Inhibition: 28.2%
[6]; Lys1, YVAVKIHQLNK
  Inhibition: 15.3%
[6]; [32]
  Inhibition: 18.3%
[7]
  Inhibition: -17.1%
[8]; [33]
  Inhibition: 10.0%
[8]; [34]
  Inhibition: 13.8%
[9]
  Inhibition: 8.0%
[10]
  Inhibition: 5.4%
[11]; Lys1, TTGQVVAMKK
  Inhibition: -18.6%
[11]; Lys2, DLKPQNLLIDDK
  Inhibition: -1.3%
[11]; [35]
  Inhibition: 2.3%
[12]; Lys2, DLKPSNLAVNEDCELK
  Inhibition: -10.4%
[12]; Other, QELNKTIWEVPER
  Inhibition: -5.0%
[13]
  Inhibition: -8.5%
[14]
  Inhibition: -8.8%
[15]; AKELPTLKDNDFINEGQK
  Inhibition: -0.9%
[15]; YIIKTITSEDVAEMHNILK
  Inhibition: -4.5%
[16]
  Inhibition: 32.8%
[17]
  Inhibition: 6.7%
[18]
  Inhibition: -19.4%
[19]
  Inhibition: 12.1%
[20]
  Inhibition: 1.6%
[21]
  Inhibition: -13.4%
[22]
  Inhibition: -1.9%
[23]; [36]
  Inhibition: -17.5%
[23]; Lys1, QLYAMKVLK
  Inhibition: 0.2%
[24]
  Inhibition: 14.4%
[25]
  Inhibition: -1.0%
[26]
  Inhibition: 21.6%
[27]
  Inhibition: -20.6%
[28]; LLSVIVKCGDDLRQELLAFQVLK
  Inhibition: -9.0%
[28]; VPHTQAVVLNSKDK
  Inhibition: -25.9%
[29]; Lys1, LFAVKCIPK
  Inhibition: 11.3%
[29]; Lys2, DLKPENLLYYSQDEESK
  Inhibition: 2.0%
[30]
  Inhibition: 16.6%
[31]
  Inhibition: -9.3%

## C=CC(=O)Nc1cc(Nc2nccc(-c3cn(C)c4ccccc34)n2)c(OC)cc1N(C)CCN(C)C [Osimertinib, osimertinib, reference compound]
[1]
  Inhibition: 26.7%
[2]
  Inhibition: 5.8%
[3]; Lys1, VDTHALYAMKTLR
  Inhibition: -12.9%
[3]; Lys2, DIKPDNILIDLDGHIK
  Inhibition: -15.6%
[4]
  Inhibition: -10.0%
[5]
  Inhibition: 48.0%
[6]; Lys1, YVAVKIHQLNK
  Inhibition: 25.0%
[6]; [32]
  Inhibition: 3.9%
[7]
  Inhibition: 8.4%
[8]; [33]
  Inhibition: -8.7%
[8]; [34]
  Inhibition: -18.4%
[9]
  Inhibition: 58.2%
[10]
  Inhibition: -9.7%
[11]; Lys1, TTGQVVAMKK
  Inhibition: -1.3%
[11]; Lys2, DLKPQNLLIDDK
  Inhibition: 29.6%
[11]; [35]
  Inhibition: -18.5%
[12]; Lys2, DLKPSNLAVNEDCELK
  Inhibition: 19.9%
[12]; Other, QELNKTIWEVPER
  Inhibition: 12.6%
[13]
  Inhibition: -28.8%
[14]
  Inhibition: 7.2%
[15]; AKELPTLKDNDFINEGQK
  Inhibition: -3.2%
[15]; YIIKTITSEDVAEMHNILK
  Inhibition: -14.3%
[16]
  Inhibition: 19.5%
[17]
  Inhibition: -4.0%
[18]
  Inhibition: -21.1%
[19]
  Inhibition: -16.3%
[20]
  Inhibition: 7.8%
[21]
  Inhibition: 19.6%
[22]
  Inhibition: 24.6%
[23]; [36]
  Inhibition: -31.9%
[23]; Lys1, QLYAMKVLK
  Inhibition: 3.3%
[24]
  Inhibition: 9.9%
[25]
  Inhibition: -33.3%
[26]
  Inhibition: -50.3%
[27]
  Inhibition: 11.1%
[28]; LLSVIVKCGDDLRQELLAFQVLK
  Inhibition: -20.5%
[28]; VPHTQAVVLNSKDK
  Inhibition: 21.1%
[29]; Lys1, LFAVKCIPK
  Inhibition: -14.3%
[29]; Lys2, DLKPENLLYYSQDEESK
  Inhibition: -8.2%
[30]
  Inhibition: 7.6%
[31]
  Inhibition: -12.2%
